Read-outs that look alike come from different tables or passages of the source.
Key:
[1] = tested on: hampsters; test: Bile lipid and bile acid contents of the bile (cholesterol-enriched diet, 80 days); format: in vivo
Protocol: (§1) The investigations were carried out on hampsters (of female sex, but excluding those in a state of pregnancy) having an initial weight of 75-90 g. They were treated for 80 days with oral administration (by gastric probe) of MG-UCD (10-20 mg/kg/day), chenodeoxycholic acid (10-20 mg/kg/day) or ursodeoxycholic acid (10-20 mg/kg/day) (Tables 4 and 5). The animals were maintained for 80 consecutive days on a Nossan feed diet for rats, enriched with cholesterol (2 mg/g of food).
(§2) Each experimental group consisted of 10 units. After 80 days, the animals were narcotised with ethyl ether, and the bile was withdrawn, together with the calculi and crystals from the gall-bladder as described by Pearlman and coll. in Gastroenterology 77, 634 (1979).
The bile acid, phospholipid, cholesterol, cholic acid, chenodeoxycholic acid, ursodeoxycholic acid, DCA (deoxycholic acid) and LCA (lithocholic acid) contents were evaluated in the bile by the methods described by Pearlman and coll. (see above).

[2] = tested on: rat; test: Acute lethality and toxicity, oral administration (gastric probe); format: in vivo; parameters: key to Toxic symptomatology Type: NN = no symptomatology; D = depression; conditions: oral
Protocol: (§3) Unless otherwise specified, the research was carried out using: a) Mg-UCD capsules as such; b) the powdered contents of Mg-UCD capsules; CDCA (chenodeoxycholic acid) and UDCA (ursodeoxycholic acid) as pure substance which in all cases was partly dissolved and partly suspended under warm conditions (T = 30°C) in 10% gum arabic mucilage (so as to administer 10-40 ml of liquid per kg orally). In certain cases, namely in the experiments involving parenteral administration, the active principle of Mg-UCD, the chenodeoxycholic acid and ursodeoxycholic acid were dissolved in distilled water of slightly alkaline pH (5-10 ml/kg).
(§4) The generally acute lethality, toxicity and tolerability were determined by oral administration of the Mg-UCD (by gastric probe) in the Mus musculus, rat and dog. Animals of both sexes were used, none of which were pregnant. They were fasted for about 12 hours before treatment (but allowing them free access to water). The investigations were carried out using the Mg-UCD in powder form. Comparative investigations were carried out on the rat and Mus musculus using the active principle by endoperitoneal administration, and chenodeoxycholic acid and ursodeoxycholic acid by oral administration (using a gastric probe). Each dose was administered to 20 rats or Mus musculus (10 male and 10 female) and to eight dogs (4 male and 4 female). The animals were observed attentively during the 7 days following administration, and any lethality, toxic symptoms, disturbances, functional variations determinable with the eye, behaviour etc. were noted.
(§5) The LD50 was determined 7 days after administration using the probit method.

[3] = as above; format: in vivo, Mus musculus; parameters: key to Toxic symptomatology Type: NN = no symptomatology; D = depression; conditions: in vivo, po; for mortality at 24 h / mortality at 168 h: oral; for mortality at 24 h: read-out: % mortality at following times after administration 24 h; for mortality at 168 h: read-out: % mortality at following times after administration 7 days; for LD50 at 168 h: probit method, read-out: LD50 (mg/kg with reliability limits) 7 days after treatment
Protocol: as §3, §4, §5

[4] = tested on: Mus musculus; test: as above; format: in vivo; parameters: key to Toxic symptomatology Type: NN = no symptomatology; D = depression; conditions: oral
Protocol: as §3, §4, §5

[5] = tested on: hampsters; test: Action on the formation of cholesterol calculi in the gall-bladder (cholesterol-enriched diet, 80 days); format: in vivo; conditions: female hampsters; for % animals with calculi / % animals with crystals: cholesterol-enriched diet
Protocol: as §1, §2

[6] = tested on: patients; test: Controlled study in comparison with the free acids; tolerability in patients; format: in vivo; conditions: patients
[7] = mouse, 2000 mg/kg, M. musculus F, 2000 mg/kg
[8] = mouse, 2000 mg/kg, M. musculus M, 2000 mg/kg
[9] = mouse, 4000 mg/kg, M. musculus F, 4000 mg/kg
[10] = mouse, 4000 mg/kg, M. musculus M, 4000 mg/kg
[11] = mouse, 8000 mg/kg, M. musculus F, 8000 mg/kg
[12] = mouse, 8000 mg/kg, M. musculus M, 8000 mg/kg
[13] = rat, 2000 mg/kg, Rat F, 2000 mg/kg
[14] = rat, 2000 mg/kg, Rat M, 2000 mg/kg
[15] = rat, 4000 mg/kg, Rat F, 4000 mg/kg
[16] = rat, 4000 mg/kg, Rat M, 4000 mg/kg
[17] = rat, 8000 mg/kg, Rat F, 8000 mg/kg
[18] = rat, 8000 mg/kg, Rat M, 8000 mg/kg

C[C@H](CCC(=O)O)[C@H]1CC[C@H]2[C@@H]3[C@@H](O)C[C@@H]4C[C@H](O)CC[C@]4(C)[C@H]3CC[C@]12C [Ursodeoxycholic acid, 17β-(1-methyl-3-carboxypropyl)-ethiocholane-3α,7β-diol]
Bile acids (expressed as molar % ± s.e.) Cheno-deoxycholic acid ([1]; 10 mg/kg/day oral for 80 days): 12.4 ± 2.6 molar %
Bile acids (expressed as molar % ± s.e.) Cholic acid ([1]; 10 mg/kg/day oral for 80 days): 30.2 ± 4.1 molar %
Bile acids (expressed as molar % ± s.e.) DCA ([1]; 10 mg/kg/day oral for 80 days): 12.9 ± 0.8 molar %
Bile acids (expressed as molar % ± s.e.) LCA ([1]; 10 mg/kg/day oral for 80 days): 2.5 ± 0.1 molar %
Bile acids (expressed as molar % ± s.e.) Urso-deoxycholic acid ([1]; 10 mg/kg/day oral for 80 days): 36.2 ± 1.4 molar %
Bile lipids (expressed as molar % ± s.e.) Bile acids ([1]; 10 mg/kg/day oral for 80 days): 79.7 ± 4.1 molar %
Bile lipids (expressed as molar % ± s.e.) Cholesterol ([1]; 10 mg/kg/day oral for 80 days): 7.4 ± 0.4 molar %
Bile lipids (expressed as molar % ± s.e.) Phospho-lipids ([1]; 10 mg/kg/day oral for 80 days): 15.5 ± 1.0 molar %
Bile acids (expressed as molar % ± s.e.) Cheno-deoxycholic acid ([1]; 20 mg/kg/day oral for 80 days): 4.5 ± 0.9 molar %
Bile acids (expressed as molar % ± s.e.) Cholic acid ([1]; 20 mg/kg/day oral for 80 days): 17.9 ± 2.1 molar %
Bile acids (expressed as molar % ± s.e.) DCA ([1]; 20 mg/kg/day oral for 80 days): 10.5 ± 0.6 molar %
Bile acids (expressed as molar % ± s.e.) LCA ([1]; 20 mg/kg/day oral for 80 days): 3.9 ± 0.2 molar %
Bile acids (expressed as molar % ± s.e.) Urso-deoxycholic acid ([1]; 20 mg/kg/day oral for 80 days): 72.8 ± 4.7 molar %
Bile lipids (expressed as molar % ± s.e.) Bile acids ([1]; 20 mg/kg/day oral for 80 days): 81.3 ± 4.3 molar %
Bile lipids (expressed as molar % ± s.e.) Cholesterol ([1]; 20 mg/kg/day oral for 80 days): 5.7 ± 0.2 molar %
Bile lipids (expressed as molar % ± s.e.) Phospho-lipids ([1]; 20 mg/kg/day oral for 80 days): 15.8 ± 1.0 molar %
Toxic symptomatology Latency ([2]; Rat F, 2000 mg/kg): 5-10 min
Toxic symptomatology Type ([2]; Rat F, 2000 mg/kg): D
Toxic symptomatology Latency ([2]; Rat F, 4000 mg/kg): 5-10 min
Toxic symptomatology Type ([2]; Rat F, 4000 mg/kg): D
Toxic symptomatology Latency ([2]; Rat F, 8000 mg/kg): 5-10 min
Toxic symptomatology Type ([2]; Rat F, 8000 mg/kg): D
Toxic symptomatology Latency ([2]; Rat M, 2000 mg/kg): 5-10 min
Toxic symptomatology Type ([2]; Rat M, 2000 mg/kg): D
Toxic symptomatology Latency ([2]; Rat M, 4000 mg/kg): 5-10 min
Toxic symptomatology Type ([2]; Rat M, 4000 mg/kg): D
Toxic symptomatology Latency ([2]; Rat M, 8000 mg/kg): 5-10 min
Toxic symptomatology Type ([2]; Rat M, 8000 mg/kg): D
mortality at 24 h [3, 7]: 0%
mortality at 168 h [3, 7]: 0%
mortality at 24 h [3, 8]: 0%
mortality at 168 h [3, 8]: 0%
mortality at 24 h [3, 9]: 20%
mortality at 168 h [3, 9]: 20%
mortality at 24 h [3, 10]: 20%
mortality at 168 h [3, 10]: 20%
mortality at 24 h [3, 11]: 60%
mortality at 168 h [3, 11]: 70%
mortality at 24 h [3, 12]: 60%
mortality at 168 h [3, 12]: 80%
LD50 at 168 h ([3]; mouse, M. musculus F): 6140 mg/kg
LD50 at 168 h ([3]; mouse, M. musculus M): 5630 mg/kg
mortality at 24 h [3, 13]: 0%
mortality at 168 h [3, 13]: 0%
mortality at 24 h [3, 14]: 0%
mortality at 168 h [3, 14]: 0%
mortality at 24 h [3, 15]: 10%
mortality at 168 h [3, 15]: 10%
mortality at 24 h [3, 16]: 10%
mortality at 168 h [3, 16]: 10%
mortality at 24 h [3, 17]: 70%
mortality at 168 h [3, 17]: 60%
mortality at 24 h [3, 18]: 70%
mortality at 168 h [3, 18]: 70%
LD50 at 168 h ([3]; rat, Rat F): 7330 mg/kg
LD50 at 168 h ([3]; rat, Rat M): 6490 mg/kg
Toxic symptomatology Latency ([4]; M. musculus F, 2000 mg/kg): 5-10 min
Toxic symptomatology Type ([4]; M. musculus F, 2000 mg/kg): D
Toxic symptomatology Latency ([4]; M. musculus F, 4000 mg/kg): 5-10 min
Toxic symptomatology Type ([4]; M. musculus F, 4000 mg/kg): D
Toxic symptomatology Latency ([4]; M. musculus F, 8000 mg/kg): 5-10 min
Toxic symptomatology Type ([4]; M. musculus F, 8000 mg/kg): D
Toxic symptomatology Latency ([4]; M. musculus M, 2000 mg/kg): 5-10 min
Toxic symptomatology Type ([4]; M. musculus M, 2000 mg/kg): D
Toxic symptomatology Latency ([4]; M. musculus M, 4000 mg/kg): 5-10 min
Toxic symptomatology Type ([4]; M. musculus M, 4000 mg/kg): D
Toxic symptomatology Latency ([4]; M. musculus M, 8000 mg/kg): 5-10 min
Toxic symptomatology Type ([4]; M. musculus M, 8000 mg/kg): D
% animals with calculi ([5]; 10 mg/kg/day oral for 80 days): 40%
% animals with crystals ([5]; 10 mg/kg/day oral for 80 days): 20%
% animals with calculi ([5]; 20 mg/kg/day oral for 80 days): 0%
% animals with crystals ([5]; 20 mg/kg/day oral for 80 days): 0%
Body weight (g ± s.e.) after following days 80 ([5]; day 80, oral, 10 mg/kg/day): 141 ± 7 g
side effects [6]: tends to cause constipation
